Laboratory results taken from the supplement of paper PMC10883282.

How the values were obtained:
Test in all cases: standardised AUC of viability dose-response curve (72 h) (fraction (0-1)); higher = less growth inhibition (more resistant)
VA-ES-BJ = system: VA-ES-BJ
Outline: (§1)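 In 384-well plates, sarcoma cell lines were exposed for 72 h, in triplicate, to 2.5 µl of a 1:3 compound dilution series whose compound-plate concentrations ran from 10 mM to 0.0002 mM. Four-parameter log-logistic models were fitted per drug and cell line to ATPLite viability, scaled 1 (full) to 0 (none). From these fits, a modified drexplorer computeAUC gave the standardised area under the curve in log-dose space. Here 1 marks no response and 0 full response.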

A204 = system: A204
Outline: as §1

SYO-1 = system: SYO-1
Outline: as §1

RD-ES = system: RD-ES
Outline: as §1

SK-LMS-1 = system: SK-LMS-1
Outline: as §1

G401 = system: G401
Outline: as §1

HS729 = system: HS729
Outline: as §1

HT1080 = system: HT1080
Outline: as §1

SW872 = system: SW872
Outline: as §1

RD = system: RD
Outline: as §1

SW1353 = system: SW1353
Outline: as §1

SW982 = system: SW982
Outline: as §1

KHOS-NP = system: KHOS-NP
Outline: as §1

MES-SA = system: MES-SA
Outline: as §1

SW684 = system: SW684
Outline: as §1

SK-ES-1 = system: SK-ES-1
Outline: as §1

KHOS-240S = system: KHOS-240S
Outline: as §1

SMILES | standardised AUC (VA-ES-BJ) | standardised AUC (A204) | standardised AUC (SYO-1) | standardised AUC (RD-ES) | standardised AUC (SK-LMS-1) | standardised AUC (G401) | standardised AUC (HS729) | standardised AUC (HT1080) | standardised AUC (SW872) | standardised AUC (RD) | standardised AUC (SW1353) | standardised AUC (SW982) | standardised AUC (KHOS-NP) | standardised AUC (MES-SA) | standardised AUC (SW684) | standardised AUC (SK-ES-1) | standardised AUC (KHOS-240S)
Cc1cnc(Nc2ccc(OCCN3CCCC3)cc2)nc1Nc1cccc(S(=O)(=O)NC(C)(C)C)c1 [FEDRATINIB] | 0.768 | 0.746 | 0.685 | 0.733 | 0.847 | 0.784 | 0.756 | 0.86 | 0.754 | 0.763 | 0.779 | 0.677 | 0.886 | 0.756 | 0.825 | 0.691 | 0.766
Cn1cc(-c2cc3c(N4CCN(c5ncc([C@@](C)(N)c6ccc(F)cc6)cn5)CC4)ncnn3c2)cn1 [AVAPRITINIB] | 0.972 | 0.727 | 0.745 | 0.956 | 0.954 | 0.913 | 0.941 | 0.971 | 0.946 | 0.978 | 0.927 | 0.948 | 0.917 | 0.937 | 0.977 | 0.953 | 0.927
CCc1cc2c(cc1N1CCC(N3CCOCC3)CC1)C(C)(C)c1[nH]c3cc(C#N)ccc3c1C2=O [ALECTINIB] | 0.949 | 1 | 1 | 1 | 0.985 | 0.997 | 1 | 0.991 | 1 | 0.99 | 1 | 0.989 | 0.989 | 1 | 1 | 0.993 | 0.967
CC(C)NC(=O)C1CCC(n2c(NC(=O)c3ccc(F)cc3)nc3ccc(CN4CCC(C(C)(C)O)CC4)cc32)CC1 (centres undefined) [BELIZATINIB] | 0.835 | 0.922 | 0.827 | 0.791 | 0.926 | 0.829 | 0.838 | 0.952 | 0.82 | 0.788 | 0.897 | 0.762 | 0.973 | 0.901 | 0.925 | 0.749 | 0.844
COc1cc2/c(=N/c3ccc(Br)cc3F)nc[nH]c2cc1OCC1CCN(C)CC1 [VANDETANIB] | 0.955 | 0.843 | 0.757 | 0.911 | 0.894 | 0.925 | 0.921 | 0.968 | 0.886 | 0.852 | 0.906 | 0.836 | 0.961 | 0.912 | 0.954 | 0.853 | 0.879
Nc1cc(C(F)(F)F)c(-c2cc(N3CCOCC3)nc(N3CCOCC3)n2)cn1 [BUPARLISIB] | 0.762 | 0.754 | 0.791 | 0.769 | 0.75 | 0.823 | 0.815 | 0.862 | 0.809 | 0.785 | 0.85 | 0.79 | 0.887 | 0.753 | 0.823 | 0.742 | 0.829
Cn1cnc2c(F)c(Nc3ccc(Br)cc3F)c(C(=O)NOCCO)cc21 [BINIMETINIB] | 0.895 | 0.936 | 0.922 | 0.978 | 0.727 | 0.869 | 0.887 | 0.756 | 0.741 | 0.736 | 0.838 | 0.89 | 0.773 | 0.905 | 0.917 | 0.933 | 0.89
Cc1ccc(NC(=O)c2ccc(CN3CCN(C)CC3)cc2)cc1Nc1nc(-c2cccnc2)cs1 [MASITINIB] | 0.897 | 0.702 | 0.749 | 0.871 | 0.907 | 0.848 | 0.884 | 0.902 | 0.874 | 0.902 | 0.857 | 0.876 | 0.89 | 0.869 | 0.873 | 0.881 | 0.853
CC(C)N1CCN(Cc2cnc(-c3cc(-c4cccc5[nH]ccc45)cc4[nH]ncc34)o2)CC1 [NEMIRALISIB] | 0.952 | 0.908 | 0.916 | 0.95 | 0.944 | 0.947 | 0.906 | 0.996 | 0.919 | 0.924 | 0.917 | 0.916 | 0.998 | 0.95 | 0.726 | 0.935 | 0.944
Cc1nc(NC(=O)N2CCC[C@H]2C(N)=O)sc1-c1ccnc(C(C)(C)C(F)(F)F)c1 [ALPELISIB] | 0.852 | 0.848 | 0.814 | 0.793 | 0.867 | 0.845 | 0.78 | 0.963 | 0.819 | 0.86 | 0.909 | 0.935 | 0.964 | 0.818 | 0.887 | 0.799 | 0.895
C[C@]1(O)C[C@@H](c2nc(-c3ccc4ccc(-c5ccccc5)nc4c3)c3c(N)nccn32)C1 [LINSITINIB] | 0.936 | 0.922 | 0.876 | 0.73 | 0.973 | 0.817 | 0.776 | 0.954 | 0.936 | 0.836 | 0.979 | 0.9 | 0.973 | 0.952 | 0.965 | 0.708 | 0.915
C[C@@H]1CCN(C(=O)CC#N)C[C@@H]1N(C)c1ncnc2[nH]ccc12 [TOFACITINIB] | 0.958 | 0.972 | 0.925 | 1 | 0.978 | 0.994 | 0.876 | 0.982 | 0.932 | 1 | 0.942 | 0.993 | 0.982 | 0.989 | 0.967 | 0.989 | 0.976
